Laboratory results from doi:10.1101/2025.02.11.637513v1 (bioRxiv, 2025).
Non-standard residues stand in square brackets, D forms with d. No end group written: not given here. *: point of attachment. Bip = N[C@@H](Cc1ccc(-c2ccccc2)cc1)C(=O)O; Hyp = O=C(O)[C@@H]1C[C@@H](O)CN1; Tic = O=C(O)[C@@H]1Cc2ccccc2CN1; Bn = c1ccc(C*)cc1

How the values were obtained:
Test in all cases: tetrapeptide-ACC substrate cleavage kinetics
Type in all cases: biochemical
human caspase-1 = molecular target: T1, human caspase-1 (Homo sapiens, UniProt P29466); conditions: Ac-P4-P3-P2-Asp-ACC substrate, 0.05-500 μM, 2-15 nM enzyme, 37°C, triplicate
T1 sequence (P29466 120-297 limits assumed): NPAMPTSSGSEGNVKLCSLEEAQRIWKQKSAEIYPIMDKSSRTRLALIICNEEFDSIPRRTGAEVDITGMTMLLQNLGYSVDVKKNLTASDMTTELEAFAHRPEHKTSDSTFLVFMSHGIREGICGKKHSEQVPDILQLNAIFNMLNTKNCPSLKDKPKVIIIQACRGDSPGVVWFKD
T1 sequence (P29466 317-404 limits assumed): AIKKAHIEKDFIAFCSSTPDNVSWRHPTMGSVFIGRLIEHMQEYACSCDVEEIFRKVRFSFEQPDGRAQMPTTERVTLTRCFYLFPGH

human caspase-4 = molecular target: T2, human caspase-4 (Homo sapiens, UniProt P49662); conditions: Ac-P4-P3-P2-Asp-ACC substrate, 0.05-500 μM, 35-200 nM enzyme, 37°C, triplicate
T2 sequence (P49662 81-270 limits assumed): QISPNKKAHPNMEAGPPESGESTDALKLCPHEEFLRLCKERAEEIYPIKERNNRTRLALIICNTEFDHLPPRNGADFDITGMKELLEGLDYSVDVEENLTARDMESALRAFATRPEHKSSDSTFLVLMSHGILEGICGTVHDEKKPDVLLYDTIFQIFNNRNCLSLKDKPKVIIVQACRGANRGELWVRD
T2 sequence (P49662 290-377 limits assumed): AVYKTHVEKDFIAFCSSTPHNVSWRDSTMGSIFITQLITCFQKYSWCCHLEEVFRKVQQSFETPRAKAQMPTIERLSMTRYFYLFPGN

human caspase-5 = molecular target: T3, human caspase-5 (Homo sapiens, UniProt P51878); conditions: Ac-P4-P3-P2-Asp-ACC substrate, 0.05-500 μM, 20-250 nM enzyme, 37°C, triplicate
T3 sequence (P51878 137-327 limits assumed): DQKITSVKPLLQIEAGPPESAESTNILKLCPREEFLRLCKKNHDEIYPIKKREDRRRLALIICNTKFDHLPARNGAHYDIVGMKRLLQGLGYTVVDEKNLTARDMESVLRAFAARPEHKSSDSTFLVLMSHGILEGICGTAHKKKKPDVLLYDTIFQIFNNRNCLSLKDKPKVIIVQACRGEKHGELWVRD
T3 sequence (P51878 347-434 limits assumed): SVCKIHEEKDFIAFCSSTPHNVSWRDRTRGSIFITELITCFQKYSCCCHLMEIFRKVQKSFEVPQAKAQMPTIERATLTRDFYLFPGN

human caspase-3 = molecular target: T4, human caspase-3 (Homo sapiens, UniProt P42574); conditions: Ac-P4-P3-P2-Asp-ACC substrate, 0.05-500 μM, 3-35 nM enzyme, 37°C, triplicate
T4 sequence (P42574 29-175 limits assumed): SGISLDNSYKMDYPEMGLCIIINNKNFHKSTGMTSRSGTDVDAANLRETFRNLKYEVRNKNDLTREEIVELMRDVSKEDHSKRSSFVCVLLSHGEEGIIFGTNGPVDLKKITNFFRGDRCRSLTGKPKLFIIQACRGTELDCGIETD
T4 sequence (P42574 176-277 limits assumed): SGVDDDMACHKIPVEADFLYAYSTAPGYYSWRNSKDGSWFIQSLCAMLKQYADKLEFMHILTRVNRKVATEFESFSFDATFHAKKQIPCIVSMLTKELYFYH

human caspase-7 = molecular target: T5, human caspase-7 (Homo sapiens, UniProt P55210); conditions: Ac-P4-P3-P2-Asp-ACC substrate, 0.05-500 μM, 40-400 nM enzyme, 37°C, triplicate
T5 sequence (P55210 24-198 limits assumed): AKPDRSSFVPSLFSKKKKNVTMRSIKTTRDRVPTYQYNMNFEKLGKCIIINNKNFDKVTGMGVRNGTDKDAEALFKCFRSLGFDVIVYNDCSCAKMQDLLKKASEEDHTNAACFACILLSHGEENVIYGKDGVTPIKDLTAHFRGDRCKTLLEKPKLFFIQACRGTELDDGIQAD
T5 sequence (P55210 207-303 limits assumed): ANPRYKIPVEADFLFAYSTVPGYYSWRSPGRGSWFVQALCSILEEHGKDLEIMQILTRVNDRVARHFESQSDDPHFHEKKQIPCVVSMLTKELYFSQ

human caspase-8 = human caspase-8 (Homo sapiens, UniProt Q14790); conditions: Ac-P4-P3-P2-Asp-ACC substrate, 0.05-500 μM, 6-42 nM enzyme, 37°C, triplicate
Sequence of human caspase-8 (Q14790 217-374 limits assumed): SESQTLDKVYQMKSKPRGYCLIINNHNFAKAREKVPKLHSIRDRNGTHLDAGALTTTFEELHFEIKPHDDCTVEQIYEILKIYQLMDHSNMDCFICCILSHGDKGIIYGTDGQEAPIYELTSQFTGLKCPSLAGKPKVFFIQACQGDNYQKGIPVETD
Sequence of human caspase-8 (Q14790 385-479 limits assumed): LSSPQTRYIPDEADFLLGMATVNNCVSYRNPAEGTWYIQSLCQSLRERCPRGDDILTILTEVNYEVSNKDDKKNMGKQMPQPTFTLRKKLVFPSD

human caspase-9 = molecular target: T6, human caspase-9 (Homo sapiens, UniProt P55211); conditions: Ac-P4-P3-P2-Asp-ACC substrate, 0.05-500 μM, 20-150 nM enzyme, 37°C, triplicate
T6 sequence (P55211 1-315 limits assumed): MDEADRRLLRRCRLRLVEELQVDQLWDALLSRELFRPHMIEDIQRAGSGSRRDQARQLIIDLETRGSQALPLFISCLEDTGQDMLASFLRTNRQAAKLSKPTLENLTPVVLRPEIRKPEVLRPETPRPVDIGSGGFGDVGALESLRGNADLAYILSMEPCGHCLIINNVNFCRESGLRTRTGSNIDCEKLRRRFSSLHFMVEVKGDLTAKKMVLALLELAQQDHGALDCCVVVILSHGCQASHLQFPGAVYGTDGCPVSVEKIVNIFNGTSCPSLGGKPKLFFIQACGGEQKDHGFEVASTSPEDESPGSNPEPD
T6 sequence (P55211 331-416 limits assumed): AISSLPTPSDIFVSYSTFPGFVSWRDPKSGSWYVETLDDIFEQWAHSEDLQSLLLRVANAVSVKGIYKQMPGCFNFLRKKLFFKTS

Row | Substance | kcat/KM caspase-1 (human caspase-1) | kcat/KM caspase-4 (human caspase-4) | kcat/KM caspase-5 (human caspase-5) | kcat/KM caspase-3 (human caspase-3) | kcat/KM caspase-7 (human caspase-7) | kcat/KM caspase-8 (human caspase-8) | kcat/KM caspase-9 (human caspase-9)
1 | Trp-Glu-His-Asp | 552 400 M^-1s^-1 | 18 000 M^-1s^-1 | 26 800 M^-1s^-1 | 8 970 M^-1s^-1 | 410 M⁻¹ s⁻¹ | 14 900 M^-1s^-1 | 8 500 M^-1s^-1
2 | Trp-Lys-Gln-Asp | 41 600 M^-1s^-1 | 320 M⁻¹ s⁻¹ | 160 M⁻¹ s⁻¹ | < 10 M⁻¹ s⁻¹ | < 10 M⁻¹ s⁻¹ | 30 M⁻¹ s⁻¹ | 10 M⁻¹ s⁻¹
3 | Trp-Thr-ProAsp | 110 000 M^-1s^-1 | 1 920 M^-1s^-1 | 3 180 M^-1s^-1 | 700 M⁻¹ s⁻¹ | 30 M⁻¹ s⁻¹ | 960 M⁻¹ s⁻¹ | 110 M⁻¹ s⁻¹
4 | Tyr-Gln-Pro-Asp | 47 200 M^-1s^-1 | 740 M⁻¹ s⁻¹ | 1 590 M^-1s^-1 | 1 920 M^-1s^-1 | 300 M⁻¹ s⁻¹ | 2 170 M^-1s^-1 | 350 M⁻¹ s⁻¹
5 | Tyr-Glu-Lys-Asp | 39 500 M^-1s^-1 | 750 M⁻¹ s⁻¹ | 3 430 M^-1s^-1 | 580 M⁻¹ s⁻¹ | 80 M⁻¹ s⁻¹ | 2 720 M^-1s^-1 | 130 M⁻¹ s⁻¹
6 | Tyr-Lys-Ala-Asp | 10 800 M^-1s^-1 | 140 M⁻¹ s⁻¹ | 180 M⁻¹ s⁻¹ | < 10 M⁻¹ s⁻¹ | < 10 M⁻¹ s⁻¹ | 210 M⁻¹ s⁻¹ | 50 M⁻¹ s⁻¹
7 | Tyr-Lys-Met-Asp | 9 700 M^-1s^-1 | 180 M⁻¹ s⁻¹ | < 10 M⁻¹ s⁻¹ | 50 M⁻¹ s⁻¹ | 10 M⁻¹ s⁻¹ | 210 M⁻¹ s⁻¹ | 50 M⁻¹ s⁻¹
8 | Tyr-Thr-Ile-Asp | 48 100 M^-1s^-1 | 510 M⁻¹ s⁻¹ | 810 M⁻¹ s⁻¹ | 9 750 M^-1s^-1 | 1 440 M^-1s^-1 | 3 260 M^-1s^-1 | 280 M⁻¹ s⁻¹
9 | Tyr-Tyr(2,6Cl2Bzl)-His-Asp | 8 700 M^-1s^-1 | < 10 M⁻¹ s⁻¹ | 1 560 M^-1s^-1 | 1 240 M^-1s^-1 | 50 M⁻¹ s⁻¹ | 1 050 M^-1s^-1 | 310 M⁻¹ s⁻¹
10 | Tyr-Val-His-Asp | 140 500 M^-1s^-1 | 2 920 M^-1s^-1 | 9 640 M^-1s^-1 | 1 530 M^-1s^-1 | 150 M⁻¹ s⁻¹ | 2 550 M^-1s^-1 | 15 800 M^-1s^-1
11 | Tyr-Val-Lys(tfa)-Asp | 28 100 M^-1s^-1 | 660 M⁻¹ s⁻¹ | 1 360 M^-1s^-1 | 1 430 M^-1s^-1 | 200 M⁻¹ s⁻¹ | 1 260 M^-1s^-1 | 250 M⁻¹ s⁻¹
12 | VY(Bn)HD | 7 300 M^-1s^-1 | 350 M⁻¹ s⁻¹ | 660 M⁻¹ s⁻¹ | 6 900 M^-1s^-1 | 180 M⁻¹ s⁻¹ | 2 610 M^-1s^-1 | 1 790 M^-1s^-1
13 | V[Bip]HD | 9 100 M^-1s^-1 | 1 640 M^-1s^-1 | 380 M⁻¹ s⁻¹ | 15 820 M^-1s^-1 | 190 M⁻¹ s⁻¹ | 2 710 M^-1s^-1 | 1 790 M^-1s^-1
14 | V[Hyp](Bn)HD | < 10 M⁻¹ s⁻¹ | < 10 M⁻¹ s⁻¹ | < 10 M⁻¹ s⁻¹ | 510 M⁻¹ s⁻¹ | 10 M⁻¹ s⁻¹ | 3 260 M^-1s^-1 | 660 M⁻¹ s⁻¹
15 | Val-Asp-His-Asp | 6 950 M^-1s^-1 | 880 M⁻¹ s⁻¹ | 4 830 M^-1s^-1 | 19 860 M^-1s^-1 | 910 M⁻¹ s⁻¹ | 16 670 M^-1s^-1 | 6 220 M^-1s^-1
16 | Val-Gly-His-Asp | 2 000 M^-1s^-1 | 480 M⁻¹ s⁻¹ | 390 M⁻¹ s⁻¹ | 7 360 M^-1s^-1 | 90 M⁻¹ s⁻¹ | 1 110 M^-1s^-1 | 3 800 M^-1s^-1
17 | Val-Trp-His-Asp | 7 700 M^-1s^-1 | 1 010 M^-1s^-1 | 60 M⁻¹ s⁻¹ | 9 980 M^-1s^-1 | 210 M⁻¹ s⁻¹ | 3 500 M^-1s^-1 | 8 880 M^-1s^-1
18 | Val-hGlu-Thr(Bzl)-Asp | 21 700 M^-1s^-1 | 1 840 M^-1s^-1 | 5 430 M^-1s^-1 | 163 200 M^-1s^-1 | 16 800 M^-1s^-1 | 85 540 M^-1s^-1 | 6 770 M^-1s^-1
19 | W(Me)Q[Tic]D | 268 600 M^-1s^-1 | 11 300 M^-1s^-1 | 14 500 M^-1s^-1 | 4 340 M^-1s^-1 | 290 M⁻¹ s⁻¹ | 2 580 M^-1s^-1 | 1 140 M^-1s^-1
20 | WT(Bn)HD | 644 300 M^-1s^-1 | 6 010 M^-1s^-1 | 10 640 M^-1s^-1 | 2 760 M^-1s^-1 | 120 M⁻¹ s⁻¹ | 8 230 M^-1s^-1 | 11 220 M^-1s^-1
